From US9790210B2, “N-(monocyclic aryl),N'-pyrazolyl-urea, thiourea, guanidine and cyanoguanidine compounds as TrkA kinase inhibitors” (Array BioPharma Inc., priority 2012, dated 2017)

How the values were obtained:
Flt1 = target: T1, Flt1 (Homo sapiens, UniProt P17948); assay: KinaseProfiler; assay type: biochemical; details: 10 μM, ATP near Km
T1 construct: purchased Millipore, Inc. (KinaseProfiler service)
How it was run: (§1)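 Screening conditions: one concentration (10 μM), ATP near Km per kinase, duplicate runs. Output: POC, averaged.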

CHK1 = target: T2, CHK1 (Homo sapiens, UniProt O14757); assay: KinaseProfiler; assay type: biochemical; details: 10 μM, ATP near Km
T2 construct: purchased Millipore, Inc. (KinaseProfiler service)
How it was run: as §1

JAK2 = target: T3, JAK2 (Homo sapiens, UniProt O60674); assay: KinaseProfiler; assay type: biochemical; details: 10 μM, ATP near Km
T3 construct: purchased Millipore, Inc. (KinaseProfiler service)
How it was run: as §1

SGK1 = target: T4, SGK1 (Homo sapiens, UniProt O00141); assay: KinaseProfiler; assay type: biochemical; details: 10 μM, ATP near Km
T4 construct: purchased Millipore, Inc. (KinaseProfiler service)
How it was run: as §1

FGFR4 = target: T5, FGFR4 (Homo sapiens, UniProt P22455); assay: KinaseProfiler; assay type: biochemical; details: 10 μM, ATP near Km
T5 construct: purchased Millipore, Inc. (KinaseProfiler service)
How it was run: as §1

GSK3beta = target: T6, GSK3beta (Homo sapiens, UniProt P49841); assay: KinaseProfiler; assay type: biochemical; details: 10 μM, ATP near Km
T6 construct: purchased Millipore, Inc. (KinaseProfiler service)
How it was run: as §1

Ros = target: T7, Ros (Homo sapiens, UniProt P08922); assay: KinaseProfiler; assay type: biochemical; details: 10 μM, ATP near Km
T7 construct: purchased Millipore, Inc. (KinaseProfiler service)
How it was run: as §1

DAPK3 = target: T8, DAPK3 (Homo sapiens, UniProt O43293); assay: KinaseProfiler; assay type: biochemical; details: 10 μM, ATP near Km
T8 construct: purchased Millipore, Inc. (KinaseProfiler service)
How it was run: as §1

DDR2 = target: T9, DDR2 (Homo sapiens, UniProt Q16832); assay: KinaseProfiler; assay type: biochemical; details: 10 μM, ATP near Km
T9 construct: purchased Millipore, Inc. (KinaseProfiler service)
How it was run: as §1

VRK2 = target: T10, VRK2 (Homo sapiens, UniProt Q86Y07); assay: KinaseProfiler; assay type: biochemical; details: 10 μM, ATP near Km
T10 construct: purchased Millipore, Inc. (KinaseProfiler service)
How it was run: as §1

PRKG1beta = target: T11, PRKG1beta (Homo sapiens, UniProt Q13976); assay: KinaseProfiler; assay type: biochemical; details: 10 μM, ATP near Km
T11 construct: purchased Millipore, Inc. (KinaseProfiler service)
How it was run: as §1

PDGFRalpha = target: T12, PDGFRalpha (Homo sapiens, UniProt P16234); assay: KinaseProfiler; assay type: biochemical; details: 10 μM, ATP near Km
T12 construct: purchased Millipore, Inc. (KinaseProfiler service)
How it was run: as §1

IRR = target: T13, IRR (Homo sapiens, UniProt P14616); assay: KinaseProfiler; assay type: biochemical; details: 10 μM, ATP near Km
T13 construct: purchased Millipore, Inc. (KinaseProfiler service)
How it was run: as §1

JNKlalpha1 = target: T14, JNKlalpha1 (Homo sapiens, UniProt P45983); assay: KinaseProfiler; assay type: biochemical; details: 10 μM, ATP near Km
T14 construct: purchased Millipore, Inc. (KinaseProfiler service)
How it was run: as §1

Haspin = target: T15, Haspin (Homo sapiens, UniProt Q8TF76); assay: KinaseProfiler; assay type: biochemical; details: 10 μM, ATP near Km
T15 construct: purchased Millipore, Inc. (KinaseProfiler service)
How it was run: as §1

Rsk3 = target: T16, Rsk3 (Homo sapiens, UniProt Q15349); assay: KinaseProfiler; assay type: biochemical; details: 10 μM, ATP near Km
T16 construct: purchased Millipore, Inc. (KinaseProfiler service)
How it was run: as §1

CK1gamma1 = target: T17, CK1gamma1 (Homo sapiens, UniProt Q9HCP0); assay: KinaseProfiler; assay type: biochemical; details: 10 μM, ATP near Km
T17 construct: purchased Millipore, Inc. (KinaseProfiler service)
How it was run: as §1

PAK4 = target: T18, PAK4 (Homo sapiens, UniProt O96013); assay: KinaseProfiler; assay type: biochemical; details: 10 μM, ATP near Km
T18 construct: purchased Millipore, Inc. (KinaseProfiler service)
How it was run: as §1

ULK3 = target: T19, ULK3 (Homo sapiens, UniProt Q6PHR2); assay: KinaseProfiler; assay type: biochemical; details: 10 μM, ATP near Km
T19 construct: purchased Millipore, Inc. (KinaseProfiler service)
How it was run: as §1

Plk1 = target: T20, Plk1 (Homo sapiens, UniProt P53350); assay: KinaseProfiler; assay type: biochemical; details: 10 μM, ATP near Km
T20 construct: purchased Millipore, Inc. (KinaseProfiler service)
How it was run: as §1

Fes = target: T21, Fes (Homo sapiens, UniProt P07332); assay: KinaseProfiler; assay type: biochemical; details: 10 μM, ATP near Km
T21 construct: purchased Millipore, Inc. (KinaseProfiler service)
How it was run: as §1

EphB1 = target: T22, EphB1 (Homo sapiens, UniProt P54762); assay: KinaseProfiler; assay type: biochemical; details: 10 μM, ATP near Km
T22 construct: purchased Millipore, Inc. (KinaseProfiler service)
How it was run: as §1

Mer = target: T23, Mer (Homo sapiens, UniProt Q12866); assay: KinaseProfiler; assay type: biochemical; details: 10 μM, ATP near Km
T23 construct: purchased Millipore, Inc. (KinaseProfiler service)
How it was run: as §1

ZAP-70 = target: T24, ZAP-70 (Homo sapiens, UniProt P43403); assay: KinaseProfiler; assay type: biochemical; details: 10 μM, ATP near Km
T24 construct: purchased Millipore, Inc. (KinaseProfiler service)
How it was run: as §1

TrkA [1] = target: T25, TrkA (Homo sapiens, UniProt P04629); assay: KinaseProfiler; assay type: biochemical; parameters: purchased Millipore, Inc. (KinaseProfiler service); details: 10 μM, ATP near Km
Method: (§2) A representative compound (Example 15) of the invention was tested for off-target kinase activity at a concentration of 10 μM by Millipore, Inc. in their KinaseProfiler™ service against all the kinases available in their full kinase panel. The compound was run in duplicate at a concentration of ATP near the Km for each individual kinase according to Millipore's specifications. The results are shown in Table B. Data are reported as percent of control (POC) and are the average of the two replicates.

off-target kinases = assay: KinaseProfiler off-target kinase profiling, full kinase panel; assay type: biochemical; details: 10 μM; panel of about 230 kinases
Method: as §2
Such a drug profile would represent a safer approach to treating pain, inflammation, cancer and certain skin diseases than has been previously reported.

TrkA [2] = target: T25, TrkA; assay: TrkA LanthaScreen Eu Kinase Binding Assay; parameters: 6HIS tagged cytoplasmic domain from Invitrogen, Catalog No. PV3144; purchased Invitrogen PV3144; details: averaged IC50; TR-FRET binding assay; read-out: TrkA Enzyme IC50

T14 sequence (P45983 1-384 isoform P45983-2): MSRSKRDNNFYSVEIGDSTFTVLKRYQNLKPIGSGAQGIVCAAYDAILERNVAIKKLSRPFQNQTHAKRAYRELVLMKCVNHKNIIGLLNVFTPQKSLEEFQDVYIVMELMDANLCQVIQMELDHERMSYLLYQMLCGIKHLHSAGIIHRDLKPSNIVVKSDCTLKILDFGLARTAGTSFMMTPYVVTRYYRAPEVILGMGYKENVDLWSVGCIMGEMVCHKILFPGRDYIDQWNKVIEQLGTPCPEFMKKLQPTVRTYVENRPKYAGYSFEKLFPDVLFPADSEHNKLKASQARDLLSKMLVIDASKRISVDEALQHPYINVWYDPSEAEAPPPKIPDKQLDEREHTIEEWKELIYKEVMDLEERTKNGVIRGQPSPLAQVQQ
T12 sequence (P16234 24-1089): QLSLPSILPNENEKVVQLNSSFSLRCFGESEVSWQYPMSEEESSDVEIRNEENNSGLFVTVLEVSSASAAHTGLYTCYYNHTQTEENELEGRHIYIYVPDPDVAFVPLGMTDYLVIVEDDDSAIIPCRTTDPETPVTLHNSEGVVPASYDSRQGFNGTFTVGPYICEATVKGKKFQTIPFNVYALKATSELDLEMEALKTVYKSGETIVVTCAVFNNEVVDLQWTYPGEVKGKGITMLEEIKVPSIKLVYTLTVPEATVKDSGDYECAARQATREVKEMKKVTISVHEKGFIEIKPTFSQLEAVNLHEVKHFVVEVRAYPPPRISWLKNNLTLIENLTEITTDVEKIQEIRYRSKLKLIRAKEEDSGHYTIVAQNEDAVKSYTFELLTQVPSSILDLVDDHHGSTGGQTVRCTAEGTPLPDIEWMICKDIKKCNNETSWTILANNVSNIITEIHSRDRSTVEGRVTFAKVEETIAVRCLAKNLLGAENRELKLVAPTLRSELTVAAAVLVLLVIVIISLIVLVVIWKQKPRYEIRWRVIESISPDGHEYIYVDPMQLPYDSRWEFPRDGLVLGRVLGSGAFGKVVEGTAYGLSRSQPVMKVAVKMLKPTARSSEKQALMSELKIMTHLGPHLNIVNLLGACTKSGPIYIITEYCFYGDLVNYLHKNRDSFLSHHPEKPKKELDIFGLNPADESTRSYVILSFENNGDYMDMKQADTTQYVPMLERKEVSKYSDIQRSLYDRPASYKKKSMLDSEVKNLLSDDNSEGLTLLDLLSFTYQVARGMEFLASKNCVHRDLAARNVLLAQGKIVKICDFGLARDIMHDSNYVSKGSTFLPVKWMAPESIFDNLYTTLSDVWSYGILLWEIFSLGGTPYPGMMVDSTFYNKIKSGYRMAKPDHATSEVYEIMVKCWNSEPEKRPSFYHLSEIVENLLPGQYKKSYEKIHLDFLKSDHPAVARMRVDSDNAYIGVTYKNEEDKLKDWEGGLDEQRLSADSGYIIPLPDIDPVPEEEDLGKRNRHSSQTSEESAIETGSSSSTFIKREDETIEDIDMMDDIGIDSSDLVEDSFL
T24 sequence (P43403 whole entry): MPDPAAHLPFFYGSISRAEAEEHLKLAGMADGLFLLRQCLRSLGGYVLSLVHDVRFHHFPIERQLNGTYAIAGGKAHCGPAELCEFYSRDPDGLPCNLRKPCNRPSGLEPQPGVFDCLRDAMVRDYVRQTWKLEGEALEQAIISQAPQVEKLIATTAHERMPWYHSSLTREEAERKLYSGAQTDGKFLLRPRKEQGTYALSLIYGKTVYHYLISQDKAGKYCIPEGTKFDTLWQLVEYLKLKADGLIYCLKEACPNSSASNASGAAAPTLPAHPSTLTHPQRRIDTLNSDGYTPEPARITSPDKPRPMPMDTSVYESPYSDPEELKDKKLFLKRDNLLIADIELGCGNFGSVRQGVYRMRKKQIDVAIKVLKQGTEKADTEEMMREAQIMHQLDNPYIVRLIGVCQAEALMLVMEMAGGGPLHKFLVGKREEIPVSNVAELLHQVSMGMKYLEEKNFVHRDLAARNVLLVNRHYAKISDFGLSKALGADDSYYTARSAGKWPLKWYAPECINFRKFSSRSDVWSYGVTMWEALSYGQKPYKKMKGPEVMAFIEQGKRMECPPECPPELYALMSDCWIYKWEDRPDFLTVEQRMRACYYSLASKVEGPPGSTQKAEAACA
T7 sequence (P08922 28-2347): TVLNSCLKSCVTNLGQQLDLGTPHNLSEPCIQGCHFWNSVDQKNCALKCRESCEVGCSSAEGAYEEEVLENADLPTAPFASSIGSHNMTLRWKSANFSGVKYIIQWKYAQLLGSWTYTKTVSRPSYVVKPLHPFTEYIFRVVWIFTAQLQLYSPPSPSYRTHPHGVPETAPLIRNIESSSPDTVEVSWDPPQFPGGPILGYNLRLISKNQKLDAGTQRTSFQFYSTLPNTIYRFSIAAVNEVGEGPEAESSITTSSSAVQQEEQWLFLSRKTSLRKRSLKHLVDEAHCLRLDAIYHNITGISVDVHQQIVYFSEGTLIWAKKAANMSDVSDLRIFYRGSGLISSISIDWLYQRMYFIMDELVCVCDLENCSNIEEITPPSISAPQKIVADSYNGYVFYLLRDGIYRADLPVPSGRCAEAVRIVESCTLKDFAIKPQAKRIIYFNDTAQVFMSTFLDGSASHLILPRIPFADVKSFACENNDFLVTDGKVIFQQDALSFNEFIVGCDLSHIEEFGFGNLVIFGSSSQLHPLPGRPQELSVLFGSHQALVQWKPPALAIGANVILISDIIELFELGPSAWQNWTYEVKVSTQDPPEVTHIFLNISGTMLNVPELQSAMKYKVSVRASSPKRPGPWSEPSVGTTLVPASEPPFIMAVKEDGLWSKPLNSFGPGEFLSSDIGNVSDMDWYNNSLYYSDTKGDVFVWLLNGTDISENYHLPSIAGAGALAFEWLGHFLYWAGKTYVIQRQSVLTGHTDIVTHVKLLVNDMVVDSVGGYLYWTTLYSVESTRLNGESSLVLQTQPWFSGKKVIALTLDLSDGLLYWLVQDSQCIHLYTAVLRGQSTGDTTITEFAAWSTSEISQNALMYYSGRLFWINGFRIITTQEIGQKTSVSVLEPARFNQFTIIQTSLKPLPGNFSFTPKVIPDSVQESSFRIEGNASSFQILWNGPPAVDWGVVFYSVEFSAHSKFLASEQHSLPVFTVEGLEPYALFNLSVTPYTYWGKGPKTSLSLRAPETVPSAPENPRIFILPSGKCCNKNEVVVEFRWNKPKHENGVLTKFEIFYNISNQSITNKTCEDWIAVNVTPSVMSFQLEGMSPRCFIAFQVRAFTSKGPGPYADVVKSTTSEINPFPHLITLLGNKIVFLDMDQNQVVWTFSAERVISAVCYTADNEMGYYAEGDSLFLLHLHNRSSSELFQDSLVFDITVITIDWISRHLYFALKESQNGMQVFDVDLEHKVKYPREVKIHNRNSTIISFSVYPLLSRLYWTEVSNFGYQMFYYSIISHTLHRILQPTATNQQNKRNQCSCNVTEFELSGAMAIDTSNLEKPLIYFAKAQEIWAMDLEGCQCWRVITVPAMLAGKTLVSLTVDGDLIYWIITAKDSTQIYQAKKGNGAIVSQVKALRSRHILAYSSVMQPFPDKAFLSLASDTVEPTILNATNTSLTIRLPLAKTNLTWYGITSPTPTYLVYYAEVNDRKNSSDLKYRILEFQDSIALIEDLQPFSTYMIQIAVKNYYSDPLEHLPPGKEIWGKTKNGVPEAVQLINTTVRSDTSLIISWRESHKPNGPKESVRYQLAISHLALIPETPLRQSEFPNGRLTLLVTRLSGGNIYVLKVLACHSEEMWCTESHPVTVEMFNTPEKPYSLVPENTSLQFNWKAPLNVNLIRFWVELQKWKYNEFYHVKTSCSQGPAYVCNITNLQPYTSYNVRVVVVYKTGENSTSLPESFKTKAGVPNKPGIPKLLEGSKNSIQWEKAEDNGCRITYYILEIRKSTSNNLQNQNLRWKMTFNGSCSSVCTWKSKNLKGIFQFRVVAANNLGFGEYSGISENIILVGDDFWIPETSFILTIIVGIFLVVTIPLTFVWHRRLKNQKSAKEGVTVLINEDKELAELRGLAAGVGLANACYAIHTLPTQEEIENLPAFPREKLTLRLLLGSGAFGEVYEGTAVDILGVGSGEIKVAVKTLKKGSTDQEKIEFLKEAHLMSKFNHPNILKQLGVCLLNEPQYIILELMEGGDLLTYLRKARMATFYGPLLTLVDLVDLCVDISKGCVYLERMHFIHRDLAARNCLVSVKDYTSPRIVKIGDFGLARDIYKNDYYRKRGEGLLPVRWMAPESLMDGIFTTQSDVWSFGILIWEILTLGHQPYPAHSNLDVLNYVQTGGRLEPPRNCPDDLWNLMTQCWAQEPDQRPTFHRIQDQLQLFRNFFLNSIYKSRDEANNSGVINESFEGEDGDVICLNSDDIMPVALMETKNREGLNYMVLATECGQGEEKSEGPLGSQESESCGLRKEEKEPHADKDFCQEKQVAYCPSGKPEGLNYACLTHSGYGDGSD
T6 sequence (P49841 whole entry): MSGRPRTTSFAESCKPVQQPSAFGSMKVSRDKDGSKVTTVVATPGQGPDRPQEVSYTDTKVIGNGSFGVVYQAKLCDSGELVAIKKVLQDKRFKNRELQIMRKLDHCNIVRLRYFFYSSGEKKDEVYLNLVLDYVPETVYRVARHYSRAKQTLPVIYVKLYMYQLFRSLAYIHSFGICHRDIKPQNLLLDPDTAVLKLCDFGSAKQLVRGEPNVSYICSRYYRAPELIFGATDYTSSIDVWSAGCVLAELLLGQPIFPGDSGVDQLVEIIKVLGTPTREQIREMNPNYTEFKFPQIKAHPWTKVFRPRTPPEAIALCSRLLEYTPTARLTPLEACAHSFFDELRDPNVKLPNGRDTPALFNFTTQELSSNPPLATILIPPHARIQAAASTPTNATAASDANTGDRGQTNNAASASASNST

`COCCCc1cc(Cl)c(Cl)cc1NC(=O)Nc1c(C)c(-c2cnn(C)c2)nn1-c1ccccc1` [Example 15, 1-(4,5-dichloro-2-(3-methoxypropyl)phenyl)-3-(1′,4-dimethyl-1-phenyl-1H,1′H-[3,4′-bipyrazol]-5-yl)urea] was tested, and the “Avg POC” value (Flt1) was 97.5 POC, the “Avg POC” value (CHK1) was 118 POC and the “Avg POC” value (JAK2) was 111.5 POC. The “Avg POC” value (SGK1) was 124 POC, the “Avg POC” value (FGFR4) was 120 POC and the “Avg POC” value (GSK3beta) was 114.5 POC. The “Avg POC” value (Ros) was 105.5 POC, the “Avg POC” value (DAPK3) was 106 POC and the “Avg POC” value (DDR2) was 104.5 POC. The “Avg POC” value (VRK2) was 94 POC, the “Avg POC” value (PRKG1beta) was 130 POC and the “Avg POC” value (PDGFRalpha) was 117.5 POC. For the same compound, the “Avg POC” value (IRR) was 99.5 POC, the “Avg POC” value (JNKlalpha1) was 107 POC and the “Avg POC” value (Haspin) was 121.5 POC. For the same compound, the “Avg POC” value (Rsk3) was 104 POC, the “Avg POC” value (CK1gamma1) was 99.5 POC and the “Avg POC” value (PAK4) was 110.5 POC. For the same compound, the “Avg POC” value (ULK3) was 92.5 POC, the “Avg POC” value (Plk1) was 89.5 POC and the “Avg POC” value (Fes) was 110 POC. For the same compound, the “Avg POC” value (EphB1) was 130 POC, the “Avg POC” value (Mer) was 97.5 POC and the “Avg POC” value (ZAP-70) was 141.5 POC. For the same compound, the “Avg POC” value (TrkA [1]) was 0 POC, the “off-target kinase activity / selectivity for TrkA versus other kinases in the panel” value (off-target kinases) was “largely inactive against off-target kinases” and the IC50 (TrkA [2]) was under 0.1 µM.
